# Results reported in patent US4727061A, “Pharmaceutical preparations having diuretic activity” (Rohm GmbH, priority 1984, dated 1988).
# System: female Sprague-Dawley rats
# Assay: Natriuretic activity in anesthetized, catheterized rats under i.v. saline/fructose infusion (method of Kramer et al.)
# Assay type: in vivo
# Settings: 250 micrograms of peptide per rat
# Source text: In the test protocol employed, female Sprague-Dawley rats weighing from 206 to 250 g were used as test animals. Before the test, the rats were exposed to a normal diet and had free access to food and water. On the day of the test, the rats were anesthetized with methohexital and catheters were inserted in the aorta and the jugular vein and from there through the abdomen in the bladder.
# The animals were then placed into individual cages mounted on a scale. A 0.45% saline solution with 2.5% fructose was then administered to them intravenously at a rate ranging from 33 to 62 microliters per minute so that the body weight remained constant. Two hours after the animals had recovered, 15 minute urine collection periods were initiated and continued throughout the test. The diuretic material to be tested was dissolved (at pH 7.4) in the infusion solution, which contained tris HCl as a buffer. In the case of the fractions characterized by natriuresis, 15 minute urine samples were collected until the sodium excretion had again reached the base line, and the rate of infusion was adjusted so that the body weight remained constant. The arterial blood pressure was monitored throughout the test by means of a pressure measuring apparatus (Statham P-23-Db). The sodium and potassium concentrations in serum and urine were monitored by flame photometry.
# 250 micrograms of the peptide substance to be tested were administered to each rat.
# (2) Sodium excretion in treated rats in micromoles per minute per milligram of administered substance of formula I.
# (3) Time of maximum activity (tmax) in minutes.
# (4) Increase in natriuresis as quotient F=(Na^+ excretion after treatment)/(Na^+ excretion before treatment).
substance,measurement,setting,value
Gly-Gly,(3) Time of maximum activity (tmax),,1.5 to 2.5 h
same,(4) Increase in natriuresis as quotient F = (Na+ excretion after treatment)/(Na+ excretion before treatment),,39.8
same,(2) Na+ excretion in treated rats,"treated rats, in the i.v. infusion solution, pH 7.4, 15 minute urine collections",14.7 micromoles per minute per mill
same,(2) Q = K+/Na+ in treated rats,"treated rats, urinary K+/Na+ quotient",0.63
